Laboratory results published in PubChem BioAssay (NCI).
Where “and” joins values, the source holds several entries; their conditions need not be identical. Equal entries are not always repeated.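 In this assay, cells in 96-well plates receive the compound at five concentrations for 48 hours. Endpoints are linearly interpolated between the surrounding concentrations. GI50 marks 50% less growth. At the TGI there is no net growth.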

Tests used:
Assay in all cases: NCI tumour cell line growth inhibition, 48 h
NCI-H522 lung = test system: NCI-H522 lung
SK-MEL-28 melanoma = test system: SK-MEL-28 melanoma
UO-31 renal = test system: UO-31 renal
K-562 leukemia = test system: K-562 leukemia
SR leukemia = test system: SR leukemia
OVCAR-8 ovarian = test system: OVCAR-8 ovarian
SF-268 CNS = test system: SF-268 CNS
BT-549 breast = test system: BT-549 breast
MOLT-4 leukemia = test system: MOLT-4 leukemia
ACHN renal = test system: ACHN renal

Row | SMILES | GI50 (NCI-H522 lung) | TGI (NCI-H522 lung) | GI50 (SK-MEL-28 melanoma) | TGI (SK-MEL-28 melanoma) | GI50 (UO-31 renal) | TGI (UO-31 renal) | GI50 (K-562 leukemia) | TGI (K-562 leukemia) | GI50 (SR leukemia) | TGI (SR leukemia) | GI50 (OVCAR-8 ovarian) | TGI (OVCAR-8 ovarian) | GI50 (SF-268 CNS) | TGI (SF-268 CNS) | GI50 (BT-549 breast) | TGI (BT-549 breast) | GI50 (MOLT-4 leukemia) | TGI (MOLT-4 leukemia) | GI50 (ACHN renal) | TGI (ACHN renal)
1 | Cc1nc2cc(Nc3nc(Nc4ccc(F)cc4)nc(N4CCN(C)CC4)n3)ccc2n1Cc1ccccc1 | 1.6 µM | 3.21 µM | 1.73 µM | 3.16 µM | 1.79 µM | 3.82 µM | 1.34 µM | 5.29 µM | 0.266 µM | 0.806 µM | 2.02 µM | 5.49 µM | 1.86 µM | 4.08 µM | 1.73 µM | 3.44 µM | 2.01 µM | 5.07 µM | 1.87 µM | 3.83 µM
2 | CNC(=O)OC1C(O[C@H]2C[C@H]3[C@@H]4CC=C5C[C@@H](O)CC[C@]5(C)[C@H]4CC[C@]3(C)[C@H]2[C@H](C)C(=O)CCC(C)C)OCC(O)C1OC1OCC(O)C(O)C1OC(=O)c1ccc(OC)cc1 (stereo partly drawn) | 0.0314 µM | 0.271 µM | 0.0123 µM | 0.0754 µM | 0.0766 µM | 0.241 µM | 0.0139 µM | 0.554 µM | 0.0112 µM | 3.22 µM | 2.82 µM | 11.2 µM | 0.0226 µM | 2.78 µM | < 0.00275 µM | 3.49 µM | 0.00824 µM | 0.0242 µM | 0.263 µM | 5.13 µM
3 | COc1ccc(/C=C/C(=O)c2cc3c(N)c(C(=O)Nc4ccccc4C)sc3nc2C)cc1 | 0.194 µM | > 50 µM | 7.14 µM | > 50 µM | 0.861 µM | > 50 µM | 0.267 µM | > 50 µM | 0.593 µM | > 50 µM | 1.14 µM | > 50 µM | 1.24 µM | > 50 µM | 0.568 µM | > 50 µM | 0.747 µM | > 50 µM | 0.36 µM | > 50 µM
4 | CCCCCCCCCCCCCC(=O)C(C)N (stereo not drawn) | 12.7 µM | 27.5 µM | 16.8 µM | 32.5 µM | 10.5 µM | 24.2 µM | 2.41 µM | 11.1 µM | 2.68 µM | 8.47 µM | 18.4 µM | 36.1 µM | 3.96 µM | 16 µM | 15.4 µM | 31.1 µM | 7.06 µM | 23.5 µM | 6.74 µM | 20.7 µM
5 | COc1ccc(Cl)cc1NC(=O)c1cccc([N+](=O)[O-])c1O | – | 38.6 µM | – | > 91.4 µM | – | 39.8 µM | – | > 100 µM | – | > 76.1 µM | – | > 100 µM | – | > 100 µM | – | 27.4 µM | – | > 100 µM | – | > 70.4 µM
6 | CS(=O)(=O)CCn1c(=O)c(Oc2ccc(F)cc2F)cc2cnc(NC3CCOCC3)nc21 | > 25 µM | > 25 µM | > 25 µM | > 25 µM | > 25 µM | > 25 µM | > 25 µM | > 25 µM | > 25 µM | > 25 µM | > 25 µM | > 25 µM | > 25 µM | > 25 µM | > 25 µM | > 25 µM | > 25 µM | > 25 µM | > 25 µM | > 25 µM
7 | O=C(CNc1ncco1)Nc1ccc(S(=O)(=O)c2ccc(NC(=O)CNc3ncco3)cc2)cc1 | 1.48 µM | 3.14 µM | 2.38 µM | 5.51 µM | 3.03 µM | 17.3 µM | 2 µM | 5.95 µM | 2.36 µM | 5.35 µM | 2.4 µM | 15.7 µM | 1.53 µM | 4.54 µM | 2.09 µM | 6.26 µM | 3.13 µM | 8.45 µM | 2.23 µM | 6.23 µM
8 | COc1cc(NCc2ccccc2O)c2ncccc2c1 | 10.1 µM | 43 µM | 21.3 µM | 80.2 µM | 7.17 µM | 75.8 µM | 17.2 µM | > 100 µM | 5.91 µM | 58.3 µM | 25.4 µM | > 100 µM | 22.5 µM | > 100 µM | 16.6 µM | 55 µM | 18.9 µM | > 100 µM | 26.8 µM | > 100 µM
9 | O=C(Nc1cccc(O)c1)c1cccc(NC2=C(Cl)C(=O)N(Cc3ccccc3)C2=O)c1 | 3.08 µM | 17.4 µM | 16.9 µM | 36.3 µM | 6.61 µM | 21.7 µM | 1.51 µM | 28.4 µM | 0.315 µM | 3.36 µM | 13.1 µM | 43.5 µM | 21.8 µM | 54.2 µM | 0.396 µM | 2.05 µM | 1.04 µM | > 100 µM | 17.9 µM | 33.1 µM
10 | CO[C@@]12C[C@H]3[C@@H]([C@@H](O)[C@@H](OC(=O)/C=C/c4ccccc4)[C@@]4(O)C(C)(C)CCC[C@]34C)[C@@H](C)C1=CC(=O)O2 | 35.1 µM | > 100 µM | 11.3 µM | 35.4 µM | 16.6 µM | > 100 µM | 12.5 µM | > 100 µM | > 100 µM | > 100 µM | 5.24 µM | 25.6 µM | 6.78 µM | 72.8 µM | 11.3 µM | 27.9 µM | > 100 µM | > 100 µM | 4.16 µM | 17.8 µM
11 | O=S(=O)(O)/C(=C\c1ccccc1)c1ccccc1 (tested in a mixture with another compound) | – | > 100 µM | – | > 100 µM | – | > 100 µM | – | > 100 µM | – | > 100 µM | – | > 100 µM | – | > 100 µM | – | > 100 µM | – | > 100 µM | – | > 100 µM
12 | NC(Cc1ccnnc1)C(=O)O (stereo not drawn) | – | > 100 µM | – | > 100 µM | – | > 100 µM | – | > 100 µM | – | > 100 µM | – | > 100 µM | – | > 100 µM | – | > 100 µM | – | > 100 µM | – | > 100 µM
13 | CC(O)C(O)C(O)C(/C=N\Nc1ccccc1)=N/Nc1ccccc1 (stereo not drawn) | – | 20.9 µM | – | 30.2 µM | – | 25.7 µM | – | 40.8 µM | – | 41.9 µM | – | 38.1 µM | – | 24.5 µM | – | 29.4 µM | – | 69.5 µM | – | 25.3 µM
14 | O=C(Nc1ccccc1O)c1ccc(CNC(=O)c2sccc2Nc2ccnc(C(F)(F)F)c2)cc1 | 5.06 µM | 27.7 µM | 5.57 µM | 46.3 µM | 2.82 µM | 15.9 µM | 5.72 µM | 62.5 µM | 4.19 µM | 61.4 µM | 3.44 µM | 41.2 µM | 7.04 µM | 27.7 µM | 5.54 µM | 35 µM | 1.78 µM | 32.7 µM | 4.95 µM | 26.5 µM
15 | COc1ccc(/C=C(/C)[N+](=O)[O-])cc1 | – | 1.81 µM | – | 8.14 µM | – | 3.15 µM | – | 16 µM | – | 3.56 µM | – | 5.75 µM | – | 9.42 µM | – | 6.91 µM | – | 5.34 µM | – | 3.97 µM
16 | CCc1c(O)c2c(c(O)c1C(C)=O)C(=O)c1c(cc(O)c(C(=O)O)c1C(=O)O)C2=O | – | > 100 µM | – | > 100 µM | – | > 100 µM | – | > 100 µM | – | > 100 µM | – | > 100 µM | – | > 100 µM | – | > 100 µM | – | > 100 µM | – | > 100 µM
17 | O=C(O)c1cc(Cc2ccc(O)c(C(=O)O)c2)ccc1O (tested in a mixture with another compound) | 12.5 µM | 33.8 µM | 10.1 µM | 26.8 µM | 3.99 µM | 19.9 µM | 2.38 µM | > 100 µM | 1.41 µM | 8.67 µM | 2.41 µM | 6.26 µM | 7.88 µM | 26.1 µM | 3.13 µM | 16.6 µM | 2.66 µM | > 100 µM | 11 µM | 24.8 µM
18 | CC(C)(C)[Si](C)(C)OCC1C=CC(n2cnc3c(N)ncnc32)O1 (stereo not drawn) | – | > 100 µM | – | > 100 µM | – | > 100 µM | – | 54 µM | – | 60.8 µM | – | > 100 µM | – | > 100 µM | – | > 54.7 µM | – | 44.4 µM | – | > 100 µM
19 | Cc1cc(C)cc(Nc2ccc([N+](=O)[O-])c(NCCN3CCOCC3)n2)c1 | 0.000235 µM | – | 0.672 µM and 2.75 µM | > 100 µM | – | > 100 µM | – | > 100 µM | – | > 100 µM | 0.006 µM and 0.0368 µM | > 100 µM | – | 85.2 µM | – | > 100 µM | – | > 100 µM | 0.0143 µM and 0.012 µM | > 100 µM
20 | CC(=O)OC1CCC2(C)C(=CCC3C4CCC5(OC6CC(C)CN(C(C)=O)C6C5C)C(C)=C4C(=O)C32)C1 (stereo not drawn) | – | 29.4 µM | – | > 100 µM | – | 81.4 µM | – | 52.7 µM | – | 40.8 µM | – | 46.1 µM | – | 31.4 µM | – | 28.6 µM | – | 23.6 µM | – | 67 µM
21 | C/C1=C/C(=O)O[C@@H]2C[C@@H](CC[C@H](C)/C=C\C=C\CC1)O[C@@](OCCc1ccccc1)([C@@H]1CSC(=O)N1)C2 | 0.0581 µM | 2.47 µM | 0.218 µM | 0.995 µM | 0.0386 µM | 0.173 µM | 0.954 µM | > 17.5 µM | 0.379 µM | > 17.5 µM | 1.11 µM | > 17.5 µM | 0.0784 µM | 0.377 µM | 0.0404 µM | 0.113 µM | > 5.2 µM | > 17.5 µM | 0.0501 µM | > 17.5 µM
22 | C/C1=C\C/C=C(\C)[C@H]2CC(CC/C(C)=C/CC1)[C@](C)(C=O)O2 | 59.6 µM | > 100 µM | > 100 µM | > 100 µM | > 100 µM | > 100 µM | 54.8 µM | > 100 µM | 16.3 µM | 35.5 µM | > 100 µM | > 100 µM | > 100 µM | > 100 µM | 20.9 µM | > 100 µM | 21 µM | > 100 µM | > 100 µM | > 100 µM
